Experiments:
Type in all cases: cell-based
[1] = system: Epstein-Barr virus (EBV) reactivation in NK/T-cell lymphoma cell line SNK6; assay: EBV reactivation by romidepsin in SNK6 cells (real-time PCR of BZLF1/BRLF1 mRNA, EBV copy number)
Procedure: (§1) The NK/T-cell lymphoma cell line SNK6 (source; Seoul National University) and the NK-cell leukemia cell line NK92MI (source; Seoul National University) were treated with the HDAC inhibitor, romidepsin 10 nM, and the PDE5 inhibitor, sildenafil 100 nM, for 24, 48, and 72 hours. After treatment, cells were harvested […]. Then, RNA was extracted using TRIzol reagent (Ambion, Life technologies), cDNA synthesis was performed using Omniscript RT kit (Qiagen), and the expression of BZLF1, an mRNA expressed during EBV reactivation, was identified through real-time PCR. The group treated with DMSO only was used as a control group.
(§2) BZLF1 mRNA expression was measured in the same manner as in Example 1, with a group treated with sildenafil alone and a group treated with 10 nM of romidepsin simultaneously at a concentration of sildenafil of 10, 100 or 1000 nM in SNK6 and NK92MI cells as experimental groups. The treatment time was 72 hours.
(§3) The inhibition of EBV reactivation by sildenafil (100 nM, 72 hours), which was shown by treatment with 10 nM of romidepsin in SNK6 and NK92MI cell lines for 72 hours, was measured through EBV copy number, BALF5, BZLF1, and BRLF1 expression. In addition, cell growth was measured by counting live cells through trypan blue staining. BALF5 is a gene with the function of generating viral DNA produced through EBV reactivation. DNA was extracted from the medium using QIAamp DNA mini kit (Qiagen) and real-time quantitative PCR was performed to measure […]. […] The results of measuring the number of EBV copies in the SNK6 cells identified as described above are shown in FIG. 5A, the expression of BZLF1 mRNA is shown in FIG. 5B, the expression of BRLF1 mRNA is shown in FIG. 5C, and the survival rate of tumor cells is shown in FIG. 5D. In addition, the expression of BRLF5 mRNA in NK92MI cells is shown in FIG. 6A, the expression of BZLF1 mRNA is shown in FIG. 6B, the expression of BRLF1 mRNA is shown in FIG. 6C, and the survival rate of tumor cells is shown in FIG. 6D.
BZLF1 and BRLF1 mRNA expressions were identified and measured by qPCR in the same manner as in Example 3.1 that EBV reactivation, which was shown by treatment of 10 nM of romidepsin in the SNK6 cell line, was inhibited by the PDE5 inhibitors of vardenafil, udenafil or tadalafil. In this connection, vardenafil was treated with 100 nM for 72 hours, udenafil was treated with 100 nM for 48 hours, and tadalafil was treated with 1000 nM for 24 hours. The expression of BZLF1 mRNA in the vardenafil-administered group is shown in FIG. 7A, and the expression of BRLF1 mRNA is shown in FIG. 7B. In addition, the expression of BZLF1 mRNA in the udenafil-administered experimental group is shown in FIG. 7C, and the expression of BRLF1 mRNA is shown in FIG. 7D. In addition, the expression of BZLF1 mRNA in the tadalafil-administered experimental group is shown in FIG. 7E, and the expression of BRLF1 mRNA is shown in FIG. 7F.

[2] = system: Epstein-Barr virus (EBV) reactivation in 1A2 cell line (lymphoma); assay: EBV reactivation by romidepsin in 1A2 cell line (BZLF1/BRLF1 mRNA); conditions: romidepsin 1 or 10 nM, 72 hours
Procedure: (§4) EBV-positive cell lines other than SNK6 and NK92MI were collected to identify EBV reactivity by romidepsin and the effect of sildenafil. As EBV-positive cell lines, the Daudi cell line (ATCC, CCL-213) and Raji cell line (ATCC, CCL-86), which are Burkitt's lymphoma cells, and the 1A2 cell line (ATCC, CRL-8119), which is a lymphoma cell, were treated with 1 or 10 nM of romidepsin for 72 hours, and mRNA expression of BZLF1 and BRLF1, genes whose expression is increased in EBV reactivation, was identified. The results for BZLF1 mRNA expression of the Daudi cell line are shown in FIG. 3A, and the results for BRLF1 mRNA expression are shown in FIG. 3B. In addition, the results for BZLF1 mRNA expression of the Raji cell line are shown in FIG. 3C, and the results for BRLF1 mRNA expression are shown in FIG. 3D. In addition, the results for BZLF1 mRNA expression of the 1A2 cell line are shown in FIG. 3E, and the results for BRLF1 mRNA expression are shown in FIG. 3F.

[3] = system: SNK6 cells; assay: Cell growth/viability by counting live cells through trypan blue staining, SNK6; conditions: sildenafil 100 nM + romidepsin 10 nM, 72 hours; versus romidepsin alone
Procedure: as §3

[4] = system: Epstein-Barr virus (EBV) reactivation in Daudi cell line (Burkitt's lymphoma); assay: EBV reactivation by romidepsin in Daudi cell line (BZLF1/BRLF1 mRNA, EBV copy number); conditions: sildenafil 100 nM + romidepsin 10 nM simultaneously, 72 hours, versus romidepsin alone
Procedure: as §4
When sildenafil and romidepsin were simultaneously treated in the Daudi cell line, which is a cell line showing EBV reactivation by romidepsin identified in Example 3.1, an experiment was performed to determine whether EBV reactivation by romidepsin was inhibited. In the Daudi cell line, a group treated with 10 nM of romidepsin and 100 nM of sildenafil separately for 72 hours and a group treated therewith simultaneously were used as experimental groups, and a group treated with DMSO only was used as a control group. In order to measure the EBV copy number secreted out of the cell by EBV reactivation, by extracting DNA from the medium and measuring the Ct value by real-time PCR and comparing the same with the reference EBV number, the EBV copy number was measured and shown in FIG. 4A. In the same manner as in Example 3.1, BZLF1 mRNA expression was measured and shown in FIG. 4B, and BRLF1 mRNA was measured and shown in FIG. 4C.

[5] = system: NK92MI cells; assay: Cell growth/viability by counting live cells through trypan blue staining, NK92MI; conditions: sildenafil 100 nM + romidepsin 10 nM, 72 hours; versus romidepsin alone
Procedure: as §3

[6] = system: Epstein-Barr virus (EBV) reactivation in NK-cell leukemia cell line NK92MI; assay: EBV reactivation by romidepsin in NK92MI cells (real-time PCR of BZLF1/BRLF1/BALF5); conditions: 72 hours
Procedure: as §1, §2, §3

[7] = SNK6 cell line, udenafil 100 nM for 48 hours with romidepsin 10 nM
[8] = SNK6 cell line, sildenafil 100 nM + romidepsin 10 nM, 72 hours, versus romidepsin alone
[9] = NK92MI cell line, sildenafil 100 nM + romidepsin 10 nM, versus romidepsin alone

In the case of CCCOc1ccc(S(=O)(=O)NCCC2CCCN2C)cc1-c1nc2c(CCC)nn(C)c2c(=O)[nH]1 (centres unmarked) [udenafil], the “BRLF1 mRNA expression” value [1, 7] is reported as “decreased” and the “BZLF1 mRNA expression” value [1, 7] is reported as “decreased”.
C/C=C1\NC(=O)[C@H]2CSSCC/C=C/[C@H](CC(=O)N[C@H](C(C)C)C(=O)N2)OC(=O)[C@H](C(C)C)NC1=O [romidepsin] was tested, and the “expression of BRLF1 mRNA” value [2] was “increased” and the “expression of BZLF1 mRNA” value [2] was “only the expression of BRLF1 was increased”.
For CCCc1nn(C)c2c(=O)[nH]c(-c3cc(S(=O)(=O)N4CCN(C)CC4)ccc3OCC)nc12 [sildenafil], the “viability of the SNK6 cell line (trypan blue)” value [3] was “decreased”, the EBV copy number [1, 8] was “decreased” and the “expression of BRLF1 mRNA” value [1, 8] was “decreased”. For the same compound, the “expression of BZLF1 mRNA” value ([1]; SNK6 cells, sildenafil 100 nM together with romidepsin 10 nM, 72 hours, compared to romidepsin alone) was “significantly decreased”, the “inhibition of EBV reactivation by romidepsin (BZLF1 mRNA expression)” value ([1]; SNK6 cells, sildenafil 10, 100 or 1000 nM in combination with romidepsin 10 nM, 72 hours) was “the effect of inhibiting the reactivation of EBV by romidepsin was observed” and the “EBV copy number (DNA from the medium)” value [4] was “no significant difference”. The “expression of BRLF1 mRNA” value [4] was “no significant difference”, the “expression of BZLF1 mRNA” value [4] was “no significant difference” and the “viability of the NK92MI cell line (trypan blue)” value [5] was “decreased”. For the same compound, the “expression of BALF5” value [6, 9] was “decreased”, the “expression of BRLF1 mRNA” value [6, 9] was “decreased” and the “expression of BZLF1 mRNA” value ([6]; NK92MI cells, sildenafil 100 nM together with romidepsin 10 nM, compared to romidepsin alone) was “significantly decreased”. For the same compound, the “inhibition of EBV reactivation by romidepsin (BZLF1 mRNA expression)” value ([6]; NK92MI cells, sildenafil 10, 100 or 1000 nM in combination with romidepsin 10 nM) was “the effect of inhibiting the reactivation of EBV by romidepsin was observed”.
